According to publication PMC5187537, “Antioxidant Activity of Oat Proteins Derived Peptides in Stressed Hepatic HepG2 Cells” (Antioxidants, 2016):
Peptide text beside a SMILES is read from it.

What was measured:
[1] = Oxygen radical absorbance capacity (ORAC) assay; details: fluorescein 0.08 µM, AAPH 150 mM, 37 °C, 50 min, potassium phosphate buffer pH 7.4 75 mM, peptides 100 and 200 µM; triplicate, mean ± STDEV
Method: The ORAC assay was performed as previously described. The decay of fluorescein (0.08 µM) by AAPH (150 mM) at 37 °C was recorded at 1 min intervals over 50 min using a BioTek™ FL × 800™ fluorescent microplate reader (Fisher Scientific, Nepean, ON, Canada) with fluorescence filters (excitation 485/20 nm, emission 528/20 nm). Potassium phosphate buffer (pH 7.4, 75 mM) was used to dissolve peptides (100 and 200 µM) and Trolox standards (6.25–100 µM). Data analysis was done with Gen5^TM software (Fisher Scientific, Nepean, ON, Canada), and ORAC values were expressed as µM Trolox Equivalent (TE)/µM peptide using the standard curve.

[2] = test system: HepG2 cells; test: MTT cytotoxicity assay; assay type: cell-based, Human; details: 24 h
Method: Human hepatocellular carcinoma (HepG2) cells were purchased from the American Type Culture Collection (ATCC; Manassas, VA, USA). They were cultured at 37 °C in a humidified incubator with 5% CO2 and 95% air. Dulbecco’s Minimal Essential Media (DMEM) supplemented with 10% (v/v) Fetal Bovine Serum was used for the maintenance of cells. […] The MTT (3-(4,5-dimethylthiazol-2-yl)-2,5-diphenyltetrazolium bromide) assay, as described in an earlier research, was used for cytotoxicity and cytoprotective tests. […] Following another 24 h incubation, cells were washed twice with 200 µL of PBS. Ten µL of MTT solution (5 mg/mL in PBS) and 100 µL of media were added to each well. After 1 h, MTT solution was removed, and 50 µL DMSO were added. Absorbances were recorded at 570 nm with 630 nm background subtraction using a BioTek Epoch™ microplate reader (Fisher Scientific, Nepean, ON, Canada). Untreated cells were used as negative control (NC) and cells treated with only AAPH were used as positive control (PC).

[3] = test system: glutathione peroxidase (GPx); test: Glutathione peroxidase activity of lysates of AAPH-stressed cells; assay type: cell-based, Human; details: then AAPH 24 h; for Effect on GPx activity of AAPH-stressed cells: 50 µM peptide 24 h; for Increase of GPx activity above that of normal cells: 100 µM peptide 24 h, p < 0.05
Method: (§1) Cells were seeded at 1 × 10^6 cells/plate in 60 mm tissue culture plates and allowed to grow for 24 h. In each plate, cells were washed twice with 4 mL of PBS (pH 7.2), and treated with 4 mL peptide samples (P1, P2, P6, P7) dissolved in culture media at 50 or 100 µM for 24 h. After removal of peptide solutions, cells were washed twice with 4 mL of PBS/plate and treated with 4 mL of […] dissolved in culture media and allowed to incubate for 24 h. Cells in each culture plate were harvested by incubation (5 min) with 0.5 mL of 0.25% trypsin, addition of 1 mL of culture media and centrifugation at 1000× g for 5 min. Cell pellets were washed with ice cold PBS (500 µL each) until no pink color was observed, re-suspended in ice cold PBS (300 µL) for the superoxide dismutase (SOD) assay, 500 µL for glutathione peroxidase (GPx) and catalase (CAT) assays. For total glutathione assay, 300 µL of 5% ice cold sulfosalicylic acid bubbled with 100% nitrogen was used for cell lysis. Cells were lysed by sonication on ice for 1 min using a probe-type sonicator (Vibra-Cell, Sonics and Materials Inc., Newtown, CT, USA) pulsing at 15 s on and 10 s off cycles. Following centrifugation of cell lysate at 13,000× g (4 °C), pellets containing cell debris were discarded, while supernatants were used for determination of glutathione content. Protein contents were determined using a modified Lowry assay.
The activity of GPx was determined as previously described in a 96-well plate. Briefly, in each well, 187.5 µL of potassium phosphate buffer was mixed with 12.5 µL NADPH (4 mM) solution and 25 µL of cell lysates or buffer (blank), and incubated at 30 °C for 5 min. Then, 100 µL of 0.15% cumene hydroperoxide was added in each well to begin the reaction. The rate of disappearance of NADPH was followed at 340 nm for 5 min. The activity was expressed as Units of GPx activity/mg protein.

[4] = test system: superoxide dismutase (SOD); test: Superoxide dismutase activity of lysates of AAPH-stressed cells; assay type: cell-based, Human; details: 50 and 100 µM peptide 24 h, then AAPH 24 h
Method: as §1
The SOD activity was measured based on the rate of reduction of nitroblue tetrazolium (2.24 mM) to formazan by xanthine oxidase (13.2 U/mL) at 560 nm. Eight concentrations of each cell extract ([…] protein/mL) or SOD standard (2–500 ng/mL) were used to obtain inhibition curves. Specifically, 20 µL of cell sample, or buffer (blank) was mixed with 160 µL of assay solution, and 20 µL of xanthine oxidase was added to initiate the reaction. The reduction of nitroblue tetrazolium to blue formazan by O2^−• generated in situ was followed at 560 nm. SOD activities were calculated and expressed as units per milligram of protein.

[5] = test system: glutathione (GSH) of HepG2 cells; test: Cellular glutathione, enzymatic recycling method; assay type: cell-based, Human; details: 100 µM peptide 24 h, then AAPH 24 h, p < 0.05
Method: as §1
The assay was based on the enzymatic recycling method adjusted for 96-well plates. All solutions were prepared in sodium phosphate buffer (125 mM, pH 7.5) that contained 6.3 mM EDTA (ethylenediaminetetraacetic acid). In summary, 60 µL of 0.35 mM NADPH and 10 µL of 6 mM DTNB were added to wells, this was followed by the addition of 20 µL cell lysate or glutathione (GSH) standard. To initiate the reaction, 10 µL of glutathione reductase (5 IU/mL) was added and the rate of reaction between GSH from cell lysate and DTNB was measured at 412 nm. Total glutathione of cell lysates was calculated based on a standard curve of glutathione.

Row | Compound | ORAC value (peroxyl radical scavenging activity) [1] | Effect on HepG2 cell viability compared to NC ([2]; 50 and 100 µM peptide, MTT, p > 0.05) | Effect on GPx activity of AAPH-stressed cells [3] | Increase of GPx activity above that of normal cells [3] [%] | Effect on SOD activity compared to AAPH treated cells only (PC) [4] | GSH concentration relative to normal cells [5] | Increase in cell viability (growth promotion) ([2]; peptide alone, no AAPH, MTT (Figure 2A)) [fold] | Concentration above which cytotoxic ([2]; tested at 20–500 µM, MTT)
1 | CC[C@H](C)[C@H](NC(=O)[C@H](Cc1ccc(O)cc1)NC(=O)[C@@H](NC(=O)[C@H](CC(C)C)NC(=O)CNC(=O)[C@@H]1CCCN1C(=O)[C@H](C)NC(=O)[C@H](CC(N)=O)NC(=O)[C@H](Cc1c[nH]cn1)NC(=O)[C@@H](N)Cc1ccc(O)cc1)C(C)C)C(=O)N[C@@H](CC(C)C)C(=O)O [P6] (H-YHNAPGLVYIL-OH; N-terminus and C-terminus assumed) | 0.14–0.61 µM TE/µM | did not affect HepG2 cells viability | completely restored the activity | 38.6 | did not affect the activity | further increased |  | 
2 | CC[C@H](C)[C@H](NC(=O)[C@H](Cc1ccc(O)cc1)NC(=O)[C@@H](NC(=O)[C@H](CC(C)C)NC(=O)CN)C(C)C)C(=O)N[C@@H](CC(C)C)C(=O)O [P2] (H-GLVYIL-OH; N-terminus and C-terminus assumed) | 0.67 ± 0.02 µM TE/µM |  | completely restored the activity | 30.2 | increase SOD to a level equivalent to that of normal cells | further increased | ~2.7 | above 450 µM
